Data as given in patent US8071600B2, “Derivatives of 4-piperazin-1-yl-4-benzo[B]thiophene suitable for the treatment of CNS disorders” (Otsuka Pharmaceutical Co., Ltd., priority 2005, dated 2011).

Experiments:
[1] = target: Human recombinant dopamine D2 receptor (Homo sapiens, UniProt P14416); conditions: forskolin-stimulated D2 receptor expressing CHO cells; well without test compound = 100%
Experimental: Partial agonistic activity on dopamine D2 receptor using D2 receptor expression cells
Partial agonistic activity on dopamine D2 receptor was evaluated by quantitatively determining cyclic AMP production inhibitory effect of a test compound in dopamine D2 receptor expression cells in which adenosine 3′,5′-cyclic monophosphate (cyclic AMP) production was induced by forskolin stimulation.
Human recombinant dopamine D2 receptor expressing Chinese hamster ovary/DHFR(−) cells were cultured in a culture medium (Iscove's Modified Dulbecco's Medium (IMDM culture medium), 10% fetal bovine serum, 50 I.U./ml penicillin, 50 μg/ml streptomycin, 200 μg/ml geneticin, 0.1 mM sodium hypoxanthine, 16 μM thymidine) at 37° C. and 5% carbon dioxide condition. Cells were seeded at 10^4 cells/well on a 96-well microtiter plate coated with poly-L-lysine and grown under the same condition for 2 days. Each well was washed with 100 μl of a culture medium (IMDM culture medium, 0.1 mM sodium hypoxanthine, 16 μM thymidine).

Dopamine D2 receptor = target: T1, Dopamine D2 receptor (Rattus norvegicus, UniProt P61169); experiment: Dopamine D2 receptor binding assay ([3H]-raclopride); conditions: Dopamine D2 receptor binding test, rat corpus striatum membrane, Ki calculated from IC50 by Cheng-Prussoff formula
T1 construct: from tissue; host or cells: Wistar rat brain, corpus striatum membranes
Procedure, shortened: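 Wistar male rat striatal membranes incubated with [3H]-raclopride (final 1 to 2 nM) in 50 mM Tris-HCl with NaCl, KCl, CaCl2, MgCl2, pH 7.4, 1% DMSO, 1 h at room temperature; filtration and scintillation counting. Nonspecific binding with 10 μM (+)-butaclamol; IC50 converted to Ki by Cheng-Prussoff.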

[2] = target: T2, Serotonin 5-HT2A receptor (Rattus norvegicus, UniProt P14842); experiment: Serotonin 5-HT2A receptor binding assay ([3H]-Ketanserin); conditions: Serotonin 5-HT2A receptor binding test, rat frontal cortex membrane, Ki calculated from IC50 by Cheng-Prussoff formula
T2 construct: from tissue; host or cells: Wistar rat brain, frontal cortex membranes
Procedure, shortened: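 Rat frontal cortex membranes incubated with [3H]-ketanserin (final 1 to 3 nM) in 50 mM Tris-HCl pH 7.4, 1% DMSO, 37° C. for 20 minutes; bound radioactivity counted after filtration.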

[3] = tested on: serotonin (5-HT) uptake by rat brain synaptosome; experiment: Serotonin (5-HT) uptake inhibitory activity by rat brain synaptosome; assay type: biochemical; conditions: test compound 300 nM, tritium labeled 5-HT 8 nM, 10 minutes uptake at 37° C.
Experimental: Measurement of serotonin (5-HT) uptake inhibitory activity of a test compound by rat brain synaptosome
Wistar male rats were decapitated, the brain was retrieved and frontal cortex was dissected out, and it was homogenized in 0.32 M sucrose solution of a weight 20 times of the weight of the tissue using a Potter type homogenizer. The homogenate was centrifuged at 4° C., 1,000×g for 10 minutes, the obtained supernatant was further centrifuged at 4° C., 20,000×g for 20 minutes, and the pellet was suspended in an incubation buffer (20 mM Hepes buffer (pH 7.4) containing 10 mM glucose, 145 mM sodium chloride, 4.5 mM potassium chloride, 1.2 mM magnesium chloride, 1.5 mM calcium chloride), which was used as crude synaptosome fraction.
5-HT uptake reaction was performed in a volume of 200 μl using a 96-well round bottom plate and pargyline (final concentration 10 μM) and sodium ascorbate (final concentration 0.2 mg/ml) were contained in the incubation buffer upon reaction and used.
Incubation buffer (total counting), non-labeled 5-HT (final concentration 10 μM, non-specific counting) and the diluted test compound (final concentration 300 nM) were added to each well. One-tenth quantity of the final volume of the synaptosome fraction was added and after preincubated at 37° C. for 10 minutes, tritium labeled 5-HT solution (final concentration 8 nM) was added and uptake reaction was started at 37° C. The uptake time was 10 minutes and the reaction was terminated by vacuum filtration through a 96-well fiber glass filter paper plate, and after the filter paper was washed with cold normal saline, it was dried enough and Microscint0 (Perkin-Elmer) was added to the filter and remaining radioactivity on the filter was measured.
Serotonin uptake inhibitory activity (%) was calculated from the radioactivity of total counting as 100%, of non-specific counting as 0%, and of counting obtained with test compound. % of inhibition of 5-HT(%)=100−[(Count obtained with test compound−Nonspecific count (0% Uptake))/(Total count (100% Uptake)−Nonspecific count (0% Uptake))]×100 The results are shown in the next Table 314.

T2 sequence (P14842 whole entry): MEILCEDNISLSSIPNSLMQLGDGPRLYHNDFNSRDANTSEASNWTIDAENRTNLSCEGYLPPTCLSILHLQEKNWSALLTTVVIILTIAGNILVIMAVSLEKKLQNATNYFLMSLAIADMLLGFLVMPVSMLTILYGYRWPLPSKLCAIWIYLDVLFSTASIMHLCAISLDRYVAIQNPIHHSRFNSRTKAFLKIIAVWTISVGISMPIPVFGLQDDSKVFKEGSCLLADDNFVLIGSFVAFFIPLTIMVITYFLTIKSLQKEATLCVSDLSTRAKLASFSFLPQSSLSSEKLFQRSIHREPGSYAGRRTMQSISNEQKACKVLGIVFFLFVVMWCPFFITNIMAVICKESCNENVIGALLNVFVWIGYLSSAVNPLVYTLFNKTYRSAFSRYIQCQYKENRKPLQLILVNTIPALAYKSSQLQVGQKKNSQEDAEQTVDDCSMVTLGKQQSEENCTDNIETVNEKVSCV
T1 sequence (P61169 whole entry): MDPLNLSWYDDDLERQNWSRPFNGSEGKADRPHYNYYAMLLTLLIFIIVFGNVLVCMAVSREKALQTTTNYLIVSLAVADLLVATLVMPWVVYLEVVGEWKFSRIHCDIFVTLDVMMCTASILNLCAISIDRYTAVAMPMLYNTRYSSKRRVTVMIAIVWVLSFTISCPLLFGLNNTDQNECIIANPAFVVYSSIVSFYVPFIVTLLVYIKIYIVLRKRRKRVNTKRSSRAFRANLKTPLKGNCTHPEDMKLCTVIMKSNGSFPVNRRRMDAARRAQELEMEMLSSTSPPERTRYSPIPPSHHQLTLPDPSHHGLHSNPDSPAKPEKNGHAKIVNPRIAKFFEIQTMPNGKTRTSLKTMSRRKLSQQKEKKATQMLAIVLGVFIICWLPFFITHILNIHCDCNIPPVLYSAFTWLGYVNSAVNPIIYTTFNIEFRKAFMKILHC
Human recombinant dopamine D2 receptor, sequence (P14416 whole entry): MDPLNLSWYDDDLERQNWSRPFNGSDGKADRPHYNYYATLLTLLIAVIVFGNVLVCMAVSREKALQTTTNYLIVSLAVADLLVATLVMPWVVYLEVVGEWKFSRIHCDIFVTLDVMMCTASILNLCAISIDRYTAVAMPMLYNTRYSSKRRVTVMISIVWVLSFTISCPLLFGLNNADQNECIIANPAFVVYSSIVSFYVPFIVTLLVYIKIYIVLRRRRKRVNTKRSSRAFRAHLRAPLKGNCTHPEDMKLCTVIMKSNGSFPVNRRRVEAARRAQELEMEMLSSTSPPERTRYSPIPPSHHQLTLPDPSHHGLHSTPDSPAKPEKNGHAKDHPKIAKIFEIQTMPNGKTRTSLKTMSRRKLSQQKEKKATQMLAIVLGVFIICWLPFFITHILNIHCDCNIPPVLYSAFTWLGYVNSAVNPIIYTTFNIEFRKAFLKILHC

quantity of cyclic AMP suppressed to, as the maximum activity [1]	SMILES	melting point	Ki (Dopamine D2 receptor) [nM]	Ki [2] [nM]	Serotonin uptake inhibitory ratio (%) (300 nM) [3]
about 10%	NCCc1ccc(O)c(O)c1 [dopamine]				
	COc1cc(NC(=O)CNC(=O)OC(C)(C)C)cc(C)c1OCCCN1CCN(c2cccc3sccc23)CC1 [Example 1059]	140.5 to 142.5 °C	0.4	3.8	97.2
	COc1cc(NC(=O)CNC(C)=O)cc(C)c1OCCCN1CCN(c2cccc3sccc23)CC1 [Example 1061]	167.5 to 170.5 °C	0.1	1.2	97.5
	CNc1cc(C)c(OCCCN2CCN(c3cccc4sccc34)CC2)c(OC)c1.Cl [Example 11, N-methyl-4-[3-(4-benzo[b]thiophen-4-yl-piperazin-1-yl)propoxy]-3-methoxy-5-methylaniline hydrochloride]	239.5 to 244 °C (dec.)	0.2	4.4	95.2
